# Measurements reported in patent publication US20260250318A1, “COMPOSITIONS AND METHODS FOR CROSSING THE BLOOD BRAIN BARRIER” (VOYAGER THERAPEUTICS, INC., priority 2022, published 2026).
# Test system: brain
# Experiment: Maturation of TTM-001 capsid, NGS enrichment in brain of CD-1 Outbred mice
# Assay type: in vivo
# Details: NGS fold-enrichment of TTM-001 matured AAV capsid variants in the brain of CD-1 Outbred mice; intravenous 1.0×10^12 VG/dose; 14 days in life; RNA; relative to non-matured TTM-001 control
# Excerpt: This Example describes maturation of the TTM-001 (SEQ ID NO: 981 (amino acid) and 983 (DNA), comprising SEQ ID NO: 941) and TTM-002 (SEQ ID NO: 982 (amino acid) and 984 (DNA), comprising SEQ ID NO: 2) capsid variants to further enhance their transduction and biodistribution in the central nervous system and evolve the AAV capsid variants to provide further cross-species compatibility. Two approaches were used to mature the TTM-001 and TTM-002 capsid sequences in order to randomize and mutate within and around the peptide insert comprised within loop IV of the capsid variant. […] In the first maturation approach, sets of three contiguous amino acids were randomized across the mutagenesis region in the TTM-001 and TTM-002 sequences, which spanned from position 450 to position 466, numbered according to SEQ ID NO: 981 and 982. In the second maturation approach, mutagenic primers were used to introduce point mutations at a low frequency, scattered across the mutagenesis region in the TTM-001 and TTM-002 sequences ranging from position 449 to position 466, numbered according to SEQ ID NO: 981 and 982. AAV capsid variants arising from each maturation approach for TTM-001 were pooled together and AAV capsid variants arising from each maturation approach for TTM-002 were also pooled together, for subsequent testing and characterization in mice.
# The library of pooled matured AAV capsid variants generated from TTM-001 or library of pooled matured AAV capsid variants generated from the TTM-002 matured AAV capsid variant each were intravenously injected into the tail vein of three female CD-1 Outbred mice (Charles River) at a dose of 1.0×10^12 VG/dose. After 14-days in life, the brains of the mice were isolated and RNA was extracted. Following RNA recovery and RT-PCR amplification, a systematic NGS enrichment analysis was performed to calculate the fold enrichment ratio relative to the corresponding TTM-001 or TTM-002 control, and the peptides comprised within the variants were identified. The data for the TTM-001 matured capsid variants is provided in Table 13 and the data for the TTM-002 matured capsid variants is provided in Table 14.
row,Sequence,Fold enrichment over TTM-001 [fold]
1,KTINGLVSPHCKAQNQQT,2.605
2,KTINGMCSPHSKAQNQQT,2.006
3,KTINGMKSPHSKAQNQQT,2.413
4,KTINGMLSPHRKAQNQQT,2.646
5,KTINGMRSPHGKAQNQQT,2.527
6,KTINGMRSPHVKAQNQQT,2.937
7,KTINGMSSPHRKAQNQQT,2.352
8,KTINGNLSPHRKAQNQQT,2.250
9,KTINGNVSPHRKAQNQQT,2.043
10,KTINGPLSPHCKAQNQQT,2.194
11,KTINGPLSPHRKAQNQQT,2.028
12,KTINGQRSPHSKAQNQQT,2.590
13,KTINGQRSPHVKAQNQQT,2.596
14,KTINGRASPHVKAQNQQT,2.272
15,KTINGRHSPHLKAQNQQT,2.369
16,KTINGRISPHGKAQNQQT,2.492
17,KTINGRISPHLKAQNQQT,2.028
18,KTINGRKSPHSKAQNQQT,2.985
19,KTINGRLSPHFKAQNQQT,2.097
20,KTINGRLSPHRKAQNQQT,2.238

row,Sequence,Fold enrichment over TTM-001 [fold]
1,KTINGRPSPHIKAQNQQT,2.155
2,KTINGRPSPHSKAQNQQT,2.276
3,KTINGRPSPHVKAQNQQT,2.419
4,KTINGRQSPHAKAQNQQT,2.026
5,KTINGRQSPHTKAQNQQT,2.294
6,KTINGRQSPHVKAQNQQT,2.557
7,KTINGRRSPHLKAQNQQT,2.391
8,KTINGRRSPHTKAQNQQT,2.069
9,KTINGRSSPHFKAQNQQT,2.428
10,KTINGRSSPHGKAQNQQT,3.035
11,KTINGRSSPHPKAQNQQT,2.596
12,KTINGRSSPHRKAQNQQT,2.965
13,KTINGRTSPHAKAQNQQT,2.060
14,KTINGRYSPHSKAQNQQT,2.080
15,KTINGSASPHVFAQNQQT,2.186
16,KTINGSASPHWSAQNQQT,2.121
17,KTINGSCSPHLAAQNQQT,2.134
18,KTINGSCSPHLRAQNQQT,2.423
19,KTINGSCSPHPLAQNQQT,3.086
20,KTINGSCSPHRKAQNQQT,4.801

row,Sequence,Fold enrichment over TTM-001 [fold]
1,KTINGSCSPHSGAQNQQT,2.994
2,KTINGSCSPHSLAQNQQT,2.099
3,KTINGSCSPHVRAQNQQT,2.406
4,KTINGSESPHDSAQNQQT,2.164
5,KTINGSGSPHAFLQNQQT,2.475
6,KTINGSGSPHALFQNQQT,2.261
7,KTINGSGSPHCLAQNQQT,4.847
8,KTINGSGSPHCLLQNQQT,4.898
9,KTINGSGSPHCLSQNQQT,2.114
10,KTINGSGSPHCSAQNQQT,2.339
11,KTINGSGSPHCSLQNQQT,4.540
12,KTINGSGSPHCSSQNQQT,2.253
13,KTINGSGSPHCTLQNQQT,2.497
14,KTINGSGSPHCVAQNQQT,2.080
15,KTINGSGSPHEHNQNQQT,2.199
16,KTINGSGSPHELPQNQQT (KTINGSGSPHFLPQNQQT),2.123
17,KTINGSGSPHFHLQNQQT,2.121
18,KTINGSGSPHFLLQNQQT,2.758
